This is an account of results in PubChem BioAssay AID602354 (The Scripps Research Institute Molecular Screening Center, 2012).

Assay [1] has as its target Diacylglycerol lipase-beta (Mus musculus) (UniProt Q91WC9). Put plainly: DAGLb inhibition in intact mouse cells, late-stage follow-up, cell-based, gel-based competitive ABPP, fluorescence, in situ, dose response (AID 602354). The following applies: DAGLb.
Assay [2] addresses Monoacylglycerol lipase ABHD6 (Mus musculus) (UniProt Q8R2Y0). Described as above.

Chain of Diacylglycerol lipase-beta (Mus musculus) (Q91WC9 whole entry, looked up): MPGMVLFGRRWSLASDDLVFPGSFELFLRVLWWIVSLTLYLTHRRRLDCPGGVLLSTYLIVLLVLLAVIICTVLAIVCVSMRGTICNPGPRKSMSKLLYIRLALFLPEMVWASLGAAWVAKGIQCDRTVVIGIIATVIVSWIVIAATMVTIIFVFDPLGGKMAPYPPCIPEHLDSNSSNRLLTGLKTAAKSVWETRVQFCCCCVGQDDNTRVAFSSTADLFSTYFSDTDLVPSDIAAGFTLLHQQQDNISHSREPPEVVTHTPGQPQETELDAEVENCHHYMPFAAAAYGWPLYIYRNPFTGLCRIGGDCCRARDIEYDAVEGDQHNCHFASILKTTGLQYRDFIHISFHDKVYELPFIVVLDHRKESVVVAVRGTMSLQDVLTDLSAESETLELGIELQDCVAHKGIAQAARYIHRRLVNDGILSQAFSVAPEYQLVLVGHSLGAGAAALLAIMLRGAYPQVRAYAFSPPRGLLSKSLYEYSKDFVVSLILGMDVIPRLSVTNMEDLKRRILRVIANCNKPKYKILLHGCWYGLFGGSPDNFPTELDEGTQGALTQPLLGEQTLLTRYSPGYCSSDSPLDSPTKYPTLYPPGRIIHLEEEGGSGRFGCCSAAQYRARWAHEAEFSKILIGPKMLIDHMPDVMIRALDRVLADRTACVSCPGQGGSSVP
Chain of Monoacylglycerol lipase ABHD6 (Mus musculus) (Q8R2Y0 whole entry, looked up): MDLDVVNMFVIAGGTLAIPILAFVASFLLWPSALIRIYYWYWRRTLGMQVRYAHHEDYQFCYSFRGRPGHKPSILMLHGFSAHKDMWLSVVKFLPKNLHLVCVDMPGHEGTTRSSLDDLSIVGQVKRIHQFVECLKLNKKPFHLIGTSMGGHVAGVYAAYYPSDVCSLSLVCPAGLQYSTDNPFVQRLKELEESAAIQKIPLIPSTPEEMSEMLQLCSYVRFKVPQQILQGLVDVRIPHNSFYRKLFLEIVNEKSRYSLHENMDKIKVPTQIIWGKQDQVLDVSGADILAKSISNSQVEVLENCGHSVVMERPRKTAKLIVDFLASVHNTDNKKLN

With `O=C(N1CCCCC1Cc1ccccc1)n1cc(-c2ccc(-c3ccccc3)cc2)nn1` (centres undefined), the figures for the IC50 in assay [1] and in assay [2] were 16 nM and 0.46 nM, respectively.
Consider `COc1ccccc1-c1ccc(-c2cn(C(=O)N3CCCCC3Cc3ccccc3)nn2)cc1` (centres undefined), for which the IC50 (in general, the midpoint of a concentration-inhibition curve) in assay [1] was 12 nM; in assay [2], 0.48 nM.
